According to paper PMC12088830 (Xenobiotica; the fate of foreign compounds in biological …, 2021):

Experiments:
CYP2R1 [1] = assay: Protein expression; format: cell-based, human
CYP2R1 [2] = assay: Gene expression; settings: for CYP2R1 mRNA expression compared to normal serum + VEH: normal serum 24 h; for CYP2R1 mRNA expression relative to VEH + normal serum: uraemic serum 24 h
OATP4C1 = assay: Protein expression; format: cell-based, human; settings: for Effect on OATP4C1 protein expression: normal serum
CYP24A1 [3] = settings: HepG2 cells; 4 nM dose; ref Horvath et al 2012; cited from earlier work
hPTECs = assay: Viability assay; format: cell-based, human
P-gp = assay: Protein expression; format: cell-based, human; settings: 240 nM for six days
ABCB1 = assay: Gene expression; format: cell-based, human
SLCO4C1 = assay: Gene expression; format: cell-based, human; settings: uraemic serum 24 h, then 240 nM for six days
CYP24A1 [4] = assay: Gene expression
P-gp and MRP4 = settings: Caco-2 cells; 3 day treatment, 100 nM; ref Maeng et al 2012; cited from earlier work
in vitro = settings: human
[5] = normal serum 24 h, then 100 nM for six days
[6] = normal serum 24 h, then 240 nM for six days
[7] = uraemic serum 24 h, then 100 nM for six days

C=C1/C(=C\C=C2/CCC[C@]3(C)[C@@H]([C@H](C)CCCC(C)(C)O)CC[C@@H]23)C[C@@H](O)C[C@@H]1O [1,25-VitD3, calcitriol]
Decrease in CYP2R1 protein expression under uraemic conditions compared to the same treatment with normal serum (CYP2R1 [1]; 100 nM for six days): 38%
Decrease in CYP2R1 protein expression under uraemic conditions compared to the same treatment with normal serum (CYP2R1 [1]; 240 nM for six days): 64%
CYP2R1 mRNA expression compared to normal serum + VEH (CYP2R1 [2]; then 240 nM for six days): 4.7 fold
CYP2R1 mRNA expression relative to VEH + normal serum (CYP2R1 [2]; then 100 nM for six days): 4.8 fold
CYP2R1 mRNA expression relative to VEH + normal serum (CYP2R1 [2]; then 240 nM for six days): 4.0 fold
Decrease in OATP4C1 protein expression relative to normal serum + VEH (OATP4C1; 240 nM for six days): 54%
Effect on OATP4C1 protein expression (OATP4C1; 100 nM for six days): no effect
CYP24A1 expression increase (CYP24A1 [3]): 5,300 fold
Effect on increasing cell viability relative to VEH (hPTECs; uraemic serum 24 h pre-treatment, then 100 nM and 240 nM for six days): no significant effects
Effect on efflux ratio of [3H]digoxin (hPTEC monolayer; 240 nM for six days, normal or uraemic serum): did not have a significant effect
Increase in P-gp protein expression with uraemic serum compared to the same treatment with normal serum (P-gp): 1.44 fold
ABCB1 mRNA expression compared to normal serum + VEH (ABCB1; [5]): 8.8 fold
ABCB1 mRNA expression compared to normal serum + VEH (ABCB1; [6]): 7.6 fold
ABCB1 mRNA expression compared to normal serum + VEH (ABCB1; [7]): 10 fold
SLCO4C1 mRNA expression compared to normal serum + VEH (SLCO4C1): 3.3 fold
CYP24A1 mRNA expression compared to normal serum + VEH (CYP24A1 [4]; [5]): 8706 fold
CYP24A1 mRNA expression compared to normal serum + VEH (CYP24A1 [4]; [6]): 9483 fold
CYP24A1 mRNA expression compared to normal serum + VEH (CYP24A1 [4]; [7]): 4967 fold
CYP24A1 mRNA expression compared to normal serum + VEH (CYP24A1 [4]; uraemic serum 24 h, then 240 nM for six days): 5343 fold
Effect on P-gp and MRP4 transport activity (basolateral to apical transport of adefovir dipivoxil) (P-gp and MRP4): Increased P-gp and MRP4 transport activity

C=C1CC[C@H](O)C/C1=C/C=C1\CCC[C@]2(C)[C@@H]([C@H](C)CCCC(C)C)CC[C@@H]12 [VitD3, cholecalciferol]
Increase in CYP2R1 mRNA expression under uraemic conditions compared to normal serum (same treatment) (CYP2R1 [2]; 100 nM for six days): 45%
CYP2R1 mRNA expression compared to normal serum + VEH (CYP2R1 [2]; then 240 nM for six days): 3.6 fold
CYP2R1 mRNA expression relative to VEH + normal serum (CYP2R1 [2]; then 100 nM for six days): 3.1 fold
Effect on OATP4C1 protein expression (OATP4C1; 240 nM for six days): no effect
Effect on cell viability (hPTECs; normal or uraemic serum, 100 or 240 nM for six days): no significant effects
Effect on ABCB1 mRNA expression (ABCB1; 100 or 240 nM for six days, normal or uraemic serum): no effect

C[C@H]1O[C@@H](O[C@H]2[C@@H](O)C[C@H](O[C@H]3[C@@H](O)C[C@H](O[C@H]4CC[C@@]5(C)[C@H](CC[C@@H]6[C@@H]5C[C@@H](O)[C@]5(C)[C@@H](C7=CC(=O)OC7)CC[C@]65O)C4)O[C@@H]3C)O[C@@H]2C)C[C@H](O)[C@@H]1O [[^3H]digoxin, digoxin]
Papp A→B at 33.5 μM (in vitro): 3.9 ± 0.14 ×10⁻⁶ cm/s
Papp A→B at 6 h, 33.5 μM (in vitro): 4.1 ± 0.27 ×10⁻⁶ cm/s
Digoxin transport in the B→A direction (hPTEC monolayer; one hour post digoxin dosing, normal serum + VEH): 29.9 ± 2.4%
